# Where two headings read alike, the source gives them in different places.
# Experiments:
# [1] = tested on: non-small cell lung cancer NCIH460 cells; conditions: cited from earlier work
# [2] = tested on: breast cancer MCF-7 cells; conditions: cited from earlier work
# H9c2 cardiomyocytes = experiment: Cell viability assay (MTT); type: cell-based, rat; conditions: for IC50: read-out: Cytotoxicity IC50
# Excerpt: (§1) Rat cardiomyocyte H9c2 cells were kindly provided by Prof. Dr. Gunhild von Amsberg from the Martini-Klinik Prostate Cancer Center, University Hospital Hamburg-Eppendorf, Hamburg, Germany. The human HaCaT keratinocyte cell line was kindly provided by Prof. N. Fusenig (Cancer Research Centre, Heidelberg, Germany). Non-cancerous human breast epithelial MCF-10A cells were kindly provided by Dr. Irina Zhitnyak (N. N. Blokhin National Medical Research Center of Oncology, Moscow, Russia). Human breast cancer MCF-7 HTB-22 and MDA-MB-231 cells were obtained from the ATTC (Manassas, VA, USA).
# (§2) H9c2 and HaCaT cells were cultured in DMEM with 10% fetal bovine serum and 1% penicillin/streptomycin (BioloT, St. Petersburg, Russia). MCF-7 and MDA-MB-231 cells were cultured in MEM (BioloT, St. Petersburg, Russia) with 10% fetal bovine serum (FBS) and 1% penicillin/streptomycin (BioloT, St. Petersburg, Russia). MCF 10A cells were cultured in DMEM F12 medium (BioloT, St. Petersburg, Russia) supplemented with 20% FBS, 20 ng/mL hrEGF (Sci-Store, Moscow, Russia), and 1% penicillin/streptomycin (BioloT, St. Petersburg, Russia). All cells were cultured at 37 °C in a humidified atmosphere containing 5% CO2.
# (§3) H9c2 cells were seeded at a concentration of 3 × 10^3 cells/well. MCF-10A, MCF-7, and MDA-MB-231 cells were seeded at 5 × 10^3 cells/well, and HaCaT cells were seeded at 1 × 10^4 cells/well. The experiments were initiated after 24 h.
# (§4) Compounds at concentrations up to 100 µM were added to the wells for 24h or 48 h, and the viability of the cells was measured using an MTT (3-(4,5-dimethylthiazol-2-yl)-2,5-diphenyltetrazolium bromide) assay, which was performed according to the manufacturer’s instructions (Sigma-Aldrich, Munich, Germany). […] DMSO was used as a control. The results are presented as percentages of the control data.
# Candida albicans KMM 455 [3] = experiment: Biofilm formation assay (MTT); type: cell-based
# Procedure: (§5) The Gram-positive bacterial Staphylococcus aureus ATCC 21027, Gram-negative bacterial Escherichia coli VKPM (B-7935), and yeast-like fungal Candida albicans KMM 455 strains were fermented on solid medium Mueller Hinton broth with agar (16.0 g/L) in a Petri dish at 37 °C for 24 h. The antimicrobial activity of the compound was tested at concentrations ranging from 100 µM and lower. The effect of the compound on bacterial growth was estimated as described by. Gentamicin and amphotericin B were used as positive controls against S. aureus, E. coli, and C. albicans, and a 1% dimethyl sulfoxide (DMSO) solution in PBS was used as a negative control. The optical density of the bacterial suspension after 18 h was measured at λ = 620 nm. The effect of the compound on biofilm formation for 18 h was tested using MTT reagent (Sigma-Aldrich, St. Louis, MO, USA) in accordance with. The optical density of the obtained solution was measured at λ = 570 nm. A Multiskan FS spectrophotometer (Thermo Scientific Inc., Beverly, MA, USA) was used for both assays. The results were calculated as percentages of the control data and presented as minimal concentrations reduced by 50% of growth or biofilm formation (MIC50).
# [4] = tested on: Escherichia coli VKPM (B-7935); experiment: Biofilm formation assay (MTT); type: cell-based
# Procedure: as §5
# [5] = tested on: Staphylococcus aureus ATCC 21027; experiment: Biofilm formation assay (MTT); type: cell-based
# Procedure: as §5
# [6] = tested on: MCF-10A breast epithelial cells; experiment: Cell viability assay (MTT); type: cell-based, human; conditions: MCF10A
# Excerpt: as §1, §2, §3, §4
# [7] = tested on: MDA-MB-231 breast cancer cells; experiment: Cell viability assay (MTT); type: cell-based, human; conditions: for IC50: read-out: Cytotoxicity IC50
# Excerpt: as §1, §2, §3, §4
# [8] = tested on: MCF-7 breast cancer cells; experiment: Cell viability assay (MTT); type: cell-based, human
# Excerpt: as §1, §2, §3, §4
# HaCaT keratinocytes = experiment: Cell viability assay (MTT); type: cell-based, human; conditions: for IC50: read-out: Cytotoxicity IC50
# Excerpt: as §1, §2, §3, §4
# CNS glioma SF-268 cells = conditions: cited from earlier work
# Candida albicans KMM 455 [9] = experiment: Antimicrobial assay, growth inhibition (optical density); type: cell-based; conditions: C. albicans, 18 h
# Procedure: as §5
# [10] = tested on: Escherichia coli VKPM (B-7935); experiment: as above; type: cell-based
# Procedure: as §5
# [11] = tested on: Staphylococcus aureus ATCC 21027; experiment: as above; type: cell-based
# Procedure: as §5
substance,measurement,setting,value
asterredione [Compound 9],cytotoxic activity,[1],moderate cytotoxic activity
same,cytotoxic activity,[2],moderate cytotoxic activity
same,decrease of viability,"H9c2 cardiomyocytes; H9c2, 100 µM for 48 h",38%
same,cell viability,"H9c2 cardiomyocytes; H9c2, 24 h, 1.0 µM",101.1 ± 6.6 % of control
same,cell viability,"H9c2 cardiomyocytes; H9c2, 24 h, 10.0 µM",101.7 ± 3.2 % of control
same,cell viability,"H9c2 cardiomyocytes; H9c2, 24 h, 100.0 µM",73.1 ± 5.1 % of control
same,IC50,"H9c2 cardiomyocytes; H9c2, 24 h",> 100 µM
same,cell viability,"H9c2 cardiomyocytes; H9c2, 48 h, 1.0 µM",90.2 ± 7.1 % of control
same,cell viability,"H9c2 cardiomyocytes; H9c2, 48 h, 10.0 µM",93.0 ± 10.4 % of control
same,cell viability,"H9c2 cardiomyocytes; H9c2, 48 h, 100.0 µM",62.2 ± 10.4 % of control
same,IC50,"H9c2 cardiomyocytes; H9c2, 48 h",> 100 µM
same,toxicity,"H9c2 cardiomyocytes; H9c2, at 10 µM",not toxic
same,"Biofilm formation, MIC50","Candida albicans KMM 455 [3]; C. albicans, 18 h",>100 µM
same,prevention of C. albicans biofilm formation,Candida albicans KMM 455 [3]; at 100 µM,41.18 ± 4.91%
same,"Biofilm formation, MIC50","[4]; E. coli, 18 h",>100 µM
same,effect on E. coli biofilm formation,[4]; at / up to 100 µM,did not affect
same,"Biofilm formation, MIC50","[5]; S. aureus, 18 h",>100 µM
same,effect on S. aureus biofilm formation,[5]; at / up to 100 µM,did not affect
same,cell viability,"[6]; 24 h, 1.0 µM",100.7 ± 0.9 % of control
same,cell viability,"[6]; 24 h, 10.0 µM",97.5 ± 3.5 % of control
same,cell viability,"[6]; 24 h, 100.0 µM",66.3 ± 3.6 % of control
same,IC50,"[6]; 24 h, read-out: Cytotoxicity IC50",> 100 µM
same,cell viability,"[6]; 48 h, 1.0 µM",96.7 ± 5.1 % of control
same,cell viability,"[6]; 48 h, 10.0 µM",79.4 ± 4.3 % of control
same,cell viability,"[6]; 48 h, 100.0 µM",61.5 ± 1.9 % of control
same,IC50,"[6]; 48 h, read-out: Cytotoxicity IC50",> 100 µM
same,IC50,"[6]; time not stated, read-out: half-maximal concentration (IC50), viability",> 100 µM
same,cell viability,"[7]; MDA-MB-231, 24 h, 1.0 µM",96.3 ± 3.2 % of control
same,cell viability,"[7]; MDA-MB-231, 24 h, 10.0 µM",106.3 ± 9.9 % of control
same,cell viability,"[7]; MDA-MB-231, 24 h, 100.0 µM",82.5 ± 1.3 % of control
same,IC50,"[7]; MDA-MB-231, 24 h",> 100 µM
same,cell viability,"[7]; MDA-MB-231, 48 h, 1.0 µM",103.2 ± 0.9 % of control
same,cell viability,"[7]; MDA-MB-231, 48 h, 10.0 µM",90.5 ± 2.7 % of control
same,cell viability,"[7]; MDA-MB-231, 48 h, 100.0 µM",52.9 ± 3.4 % of control
same,IC50,"[7]; MDA-MB-231, 48 h",≥ 100 µM
same,IC50,"[8]; MCF-7, 24 h, read-out: Cytotoxicity IC50",51.3 ± 2.6 µM
same,cell viability,"[8]; MCF-7, 48 h, 1.0 µM",97.8 ± 1.1 % of control
same,cell viability,"[8]; MCF-7, 48 h, 10.0 µM",78.6 ± 7.6 % of control
same,cell viability,"[8]; MCF-7, 48 h, 100.0 µM",21.2 ± 6.6 % of control
same,IC50,"[8]; MCF-7, 48 h, read-out: Cytotoxicity IC50",55.1 ± 3.9 µM
same,IC50,"[8]; MCF-7, time not stated, read-out: IC50, viability",~50 µM
same,decrease of viability,HaCaT keratinocytes; 100 µM for 48 h,23%
same,cell viability,"HaCaT keratinocytes; 24 h, 1.0 µM",88.7 ± 3.0 % of control
same,cell viability,"HaCaT keratinocytes; 24 h, 10.0 µM",79.2 ± 2.1 % of control
same,cell viability,"HaCaT keratinocytes; 24 h, 100.0 µM",62.0 ± 6.9 % of control
same,IC50,HaCaT keratinocytes; 24 h,> 100 µM
same,cell viability,"HaCaT keratinocytes; 48 h, 1.0 µM",99.5 ± 2.3 % of control
same,cell viability,"HaCaT keratinocytes; 48 h, 10.0 µM",92.6 ± 11.2 % of control
same,cell viability,"HaCaT keratinocytes; 48 h, 100.0 µM",77.1 ± 1.5 % of control
same,IC50,HaCaT keratinocytes; 48 h,> 100 µM
same,toxicity,HaCaT keratinocytes; at 10 µM,not toxic
same,cytotoxic activity,CNS glioma SF-268 cells,moderate cytotoxic activity
same,MIC50,Candida albicans KMM 455 [9],>100 µM
same,MIC50,"[10]; E. coli, 18 h",>100 µM
same,effect on E. coli growth,[10]; at / up to 100 µM,did not affect
same,MIC50,"[11]; S. aureus, 18 h",>100 µM
same,effect on S. aureus growth,[11]; at / up to 100 µM,did not affect

# Source: article PMC12471299, “Secondary Metabolites of the Marine Sponge-Derived Fungus Aspergillus subramanianii 1901NT-1.40.2 and Their Antimicrobial and Anticancer Activities” (Marine Drugs, 2025)
